Reference: ChEMBL document CHEMBL1201862, “PubChem BioAssay data set” (2004)
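Interpolation was linear, between the two tested concentrations surrounding the appropriate level; five concentrations were tested over 48 hours in 96-well plates. GI50 is the concentration that inhibits growth by half.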 Activity calls are given as the source filed them. Cut-off read from the data, not from the text of the source: active = GI50 up to about 1.1 µM and inactive = higher.

Experiments:
Experiment in all cases: NCI tumour cell line growth inhibition, 48 h
A549 = test system: A549
COLO 205 = test system: COLO 205
Hs-578T = test system: Hs-578T
MDA-MB-231 = test system: MDA-MB-231
MDA-N = test system: MDA-N
MOLT-4 = test system: MOLT-4
NCI-H226 = test system: NCI-H226
NCI/ADR-RES = test system: NCI/ADR-RES
PC-3 = test system: PC-3
SK-MEL-5 = test system: SK-MEL-5
T47D = test system: T47D
TK-10 = test system: TK-10
DU-145 = test system: DU-145
EKVX = test system: EKVX
SF-268 = test system: SF-268
LOX IMVI = test system: LOX IMVI
SR = test system: SR

Measured: GI50

COc1cc([C@@H]2c3cc4c(cc3[C@@H](NCCNCCO)[C@H]3COC(=O)[C@H]23)OCO4)cc(OC)c1O
inactive: COLO 205 2.42 µM | Hs-578T 2.63 µM | MDA-MB-231 3.69 µM | MDA-N 3.88 µM | NCI-H226 1.37 µM | NCI/ADR-RES > 99.5 µM | PC-3 3.78 µM | TK-10 7.38 µM
active: A549 0.406 µM | MOLT-4 0.0267 µM | SK-MEL-5 0.659 µM | T47D 0.841 µM

O=C(O)c1cc2ccccc2c(/N=N/c2ccccc2)c1O
inactive: A549 18.1 µM | COLO 205 17.9 µM | DU-145 14.5 µM | EKVX 23.4 µM | Hs-578T 6.82 µM | MDA-MB-231 > 100 µM | MDA-N 19.1 µM | MOLT-4 92.7 µM | NCI/ADR-RES 27.2 µM | PC-3 18.5 µM | SF-268 30 µM | SK-MEL-5 5.47 µM | T47D 38.1 µM | TK-10 29 µM

CCOC(=O)CCC(C(=O)OCC)n1nnc2ccc(Nc3c(C)[n+]([O-])c4cc(Cl)ccc4[n+]3[O-])cc21 (centres undefined)
inactive: A549 61.5 µM | COLO 205 19.3 µM | DU-145 30.4 µM | EKVX 27.7 µM | Hs-578T 32.4 µM | LOX IMVI 17.7 µM | MOLT-4 38.2 µM | NCI-H226 26.5 µM | NCI/ADR-RES 31.8 µM | PC-3 53.8 µM | SF-268 18.8 µM | SR 30.3 µM | T47D 19.5 µM | TK-10 71.8 µM

CC(=O)Nc1ccc2c(c1)/C(=C\c1ccc([N+](C)(C)C)cc1)c1ccccc1-2
inactive: A549 33.7 µM | COLO 205 18 µM | DU-145 89.3 µM | EKVX 26.5 µM | Hs-578T 35.4 µM | LOX IMVI 47.9 µM | MDA-MB-231 4.43 µM | MDA-N 32.8 µM | MOLT-4 32.9 µM | NCI-H226 23.1 µM | NCI/ADR-RES > 100 µM | PC-3 19.9 µM | SF-268 64.9 µM | SK-MEL-5 24.2 µM | T47D 23.2 µM | TK-10 > 100 µM

COC(=O)/C=C(/C=C1/C(C#N)=C(N)N(c2ccc(Cl)cc2)C1(C)/C(=C/C(=O)OC)C(=O)OC)C(=O)OC (centres undefined)
inactive: COLO 205 25.1 µM | DU-145 60.3 µM | EKVX 46.1 µM | LOX IMVI 23.9 µM | MDA-MB-231 8.69 µM | MDA-N 45.1 µM | MOLT-4 23 µM | NCI/ADR-RES 53 µM | PC-3 34.6 µM | SF-268 > 100 µM | SR 29.6 µM | T47D 49.1 µM | TK-10 60.1 µM

COc1cc2c(cc1OC)OC(c1c(OC)ccc(OC)c1O)CC2 (centres undefined)
inactive: A549 > 100 µM | COLO 205 91.4 µM | DU-145 > 100 µM | EKVX > 100 µM | Hs-578T 53.8 µM | LOX IMVI > 100 µM | MDA-MB-231 > 100 µM | MOLT-4 71.9 µM | NCI-H226 > 100 µM | NCI/ADR-RES > 100 µM | PC-3 > 100 µM | SF-268 > 100 µM | SK-MEL-5 76.2 µM | SR > 100 µM | T47D 65.8 µM | TK-10 95.3 µM

O=C(NCc1ccc(Cl)cc1)c1cc2sccc2nc1C(F)(F)F
inactive: A549 34.2 µM | COLO 205 > 100 µM | EKVX 34 µM | Hs-578T 19.8 µM | MDA-MB-231 31.3 µM | MDA-N > 100 µM | MOLT-4 > 100 µM | NCI-H226 19.6 µM | NCI/ADR-RES 39.1 µM | PC-3 48 µM | SF-268 24.2 µM | SK-MEL-5 49.7 µM | SR 39.9 µM | T47D > 100 µM | TK-10 33.7 µM

COC(=O)c1ccccc1/C=C1\Cc2cc(C)c(C)cc2C1=O
inactive: A549 > 100 µM | COLO 205 > 100 µM | DU-145 > 100 µM | EKVX > 100 µM | Hs-578T 40.7 µM | LOX IMVI > 100 µM | MDA-N > 100 µM | MOLT-4 > 100 µM | NCI-H226 49 µM | NCI/ADR-RES > 100 µM | PC-3 > 100 µM | SF-268 40.3 µM | SK-MEL-5 > 100 µM | SR > 100 µM | T47D > 100 µM | TK-10 36.9 µM

CCOP(=O)(Nc1ccccc1P(=O)(OCC)OCC)OCC
inactive: A549 > 100 µM | COLO 205 > 100 µM | DU-145 > 100 µM | EKVX > 100 µM | Hs-578T > 100 µM | MDA-MB-231 > 100 µM | MDA-N > 100 µM | MOLT-4 > 100 µM | NCI/ADR-RES > 100 µM | PC-3 > 100 µM | SF-268 > 100 µM | SK-MEL-5 > 100 µM | TK-10 > 100 µM
